{"source": "ChEMBL document CHEMBL1201862", "about": "“PubChem BioAssay data set” (2004)", "key": {"[1]": {"target": "T1, High affinity choline transporter 1 (Homo sapiens, UniProt Q9GZV3)", "T1 sequence (Q9GZV3 whole entry)": "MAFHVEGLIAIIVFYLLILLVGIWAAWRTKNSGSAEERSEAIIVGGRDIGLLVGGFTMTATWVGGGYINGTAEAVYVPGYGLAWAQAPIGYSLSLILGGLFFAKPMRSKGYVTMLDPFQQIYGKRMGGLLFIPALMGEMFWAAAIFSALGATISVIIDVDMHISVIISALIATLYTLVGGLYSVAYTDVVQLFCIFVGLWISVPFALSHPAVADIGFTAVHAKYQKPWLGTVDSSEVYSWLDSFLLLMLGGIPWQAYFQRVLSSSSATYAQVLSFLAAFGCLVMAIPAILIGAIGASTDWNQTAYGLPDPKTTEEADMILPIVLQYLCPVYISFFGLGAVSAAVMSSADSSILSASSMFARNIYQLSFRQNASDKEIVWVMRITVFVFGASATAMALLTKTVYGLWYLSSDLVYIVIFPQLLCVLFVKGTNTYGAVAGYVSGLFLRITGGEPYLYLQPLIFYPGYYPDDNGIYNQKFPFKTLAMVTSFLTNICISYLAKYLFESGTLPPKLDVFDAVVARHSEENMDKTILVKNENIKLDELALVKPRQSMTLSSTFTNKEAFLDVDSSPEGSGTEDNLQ", "test": "human choline transporter blockers, potency – cell-based, 5-point CRC, membrane potential dye, dose response (AID 504840)", "assay_type": "functional"}, "[2]": {"test": "alpha-synuclein stem-loop luciferase translation blockers – H4 neuroglioma cells, luminescence, confirmation (AID 1988)", "assay_type": "functional, cell-based"}, "[3]": {"test": "luciferase reporter signal suppression in cells – H4 neuroglioma cells, luminescence, dose response (AID 1990)", "assay_type": "functional, cell-based"}, "[4]": {"test": "Luminescence Cell-Based Dose Response HTS to Identify Inhibitors of 5'UTR Stem-Loop Driven Prion Protein mRNA Translation in H4 Neuroglioblastoma Cells. [Related pubchem assays: 1827 (Project Summary), 1813 (Primary HTS)]", "assay_type": "functional"}, "[5]": {"test": "cells", "assay_type": "functional, cell-based"}, "[6]": {"test": "cells", "assay_type": "functional, cell-based", "remark": "listed apart in the source"}, "[7]": {"target": "T2, Zinc finger protein mex-5 (Caenorhabditis elegans, UniProt Q9XUB2)", "T2 sequence (Q9XUB2 whole entry)": "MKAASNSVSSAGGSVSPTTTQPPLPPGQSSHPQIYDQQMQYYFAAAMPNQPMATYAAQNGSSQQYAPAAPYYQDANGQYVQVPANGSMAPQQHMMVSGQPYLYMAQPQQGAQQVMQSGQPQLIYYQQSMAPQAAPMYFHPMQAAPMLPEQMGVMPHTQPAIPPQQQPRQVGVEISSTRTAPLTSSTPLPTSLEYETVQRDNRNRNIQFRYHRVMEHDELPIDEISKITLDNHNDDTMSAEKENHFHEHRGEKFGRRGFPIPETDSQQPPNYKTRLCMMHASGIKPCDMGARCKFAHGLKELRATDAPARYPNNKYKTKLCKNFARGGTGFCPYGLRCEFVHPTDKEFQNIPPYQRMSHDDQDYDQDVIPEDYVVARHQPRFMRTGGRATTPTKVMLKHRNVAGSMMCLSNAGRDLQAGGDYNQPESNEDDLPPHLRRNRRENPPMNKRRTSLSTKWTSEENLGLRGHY", "test": "potency of MEX-5 RNA-binding blockers – biochemical, C. elegans, fluorescence polarization, dose response (AID 1960)"}, "[8]": {"target": "T3, RNA-binding protein pos-1 (Caenorhabditis elegans, UniProt G5EF15)", "T3 sequence (G5EF15 whole entry)": "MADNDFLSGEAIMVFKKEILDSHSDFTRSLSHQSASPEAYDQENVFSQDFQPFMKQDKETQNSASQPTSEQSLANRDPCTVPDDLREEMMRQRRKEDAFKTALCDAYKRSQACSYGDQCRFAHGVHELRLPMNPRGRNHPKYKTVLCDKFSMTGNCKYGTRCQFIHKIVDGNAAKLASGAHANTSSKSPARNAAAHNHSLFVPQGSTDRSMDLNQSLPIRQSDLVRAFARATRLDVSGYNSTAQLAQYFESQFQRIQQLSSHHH", "test": "disruptors of C. elegans POS-1 RNA interaction – biochemical, fluorescence polarization, dose response (AID 1964);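 further: purified POS-1 fused to maltose binding protein made in E. coli; potency of compounds blocking POS-1 binding to fluorescent RNA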"}, "[9]": {"test": "Luminescence Cell-Based Dose Retest to Confirm Inhibitors of Cancer Stem Cells. [Related pubchem assays (depositor defined):AID2717, AID2721]", "assay_type": "functional", "conditions": "Homo sapiens"}, "[10]": {"target": "T4, Cytochrome P450 1A2 (Homo sapiens, UniProt P05177)", "T4 sequence (P05177 whole entry)": "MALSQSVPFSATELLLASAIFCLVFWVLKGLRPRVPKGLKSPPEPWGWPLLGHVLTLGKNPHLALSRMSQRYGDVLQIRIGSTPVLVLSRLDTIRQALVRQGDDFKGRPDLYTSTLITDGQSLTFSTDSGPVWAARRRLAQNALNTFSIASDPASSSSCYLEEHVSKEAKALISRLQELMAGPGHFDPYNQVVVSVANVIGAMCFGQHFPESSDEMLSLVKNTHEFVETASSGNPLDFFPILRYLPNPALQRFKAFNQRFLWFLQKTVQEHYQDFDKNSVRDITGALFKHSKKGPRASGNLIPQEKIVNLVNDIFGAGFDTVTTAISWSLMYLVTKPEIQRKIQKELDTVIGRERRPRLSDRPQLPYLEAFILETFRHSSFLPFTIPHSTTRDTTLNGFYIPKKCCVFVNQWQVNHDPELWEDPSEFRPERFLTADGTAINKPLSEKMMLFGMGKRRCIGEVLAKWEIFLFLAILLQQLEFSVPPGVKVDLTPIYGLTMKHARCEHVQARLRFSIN"}}, "note": "Active and inactive are the calls of the source. For most assays here, no stated cut-off is given here; in the data, actives have a measured EC50 and inactives only a lower limit.", "data": [{"compound": "Cc1ccccc1NC(=O)c1ccc(F)c(S(=O)(=O)NCC2CCCO2)c1", "note": "(stereo unspecified)", "values": [{"measurement": "IC50", "setting": "[1]", "value": "12.3 µM (active)"}]}, {"compound": "O=C(Nc1ccccc1Cl)N1CCN(c2ccc3nnc(-c4ccc(F)cc4)n3n2)CC1", "values": [{"measurement": "EC50", "setting": "[2]", "value": "> 120 µM (not active)"}, {"measurement": "EC50", "setting": "[3]", "value": "13.4 µM (active)"}, {"measurement": "EC50", "setting": "[4]", "value": "15.2 µM (active)"}]}, {"compound": "COc1ccc(N2CCN(C(=O)COc3ccc4c(C)c(C)c(=O)oc4c3C)CC2)cc1", "values": [{"measurement": "EC50", "setting": "[5]", "value": "> 350 µM (not active)"}, {"measurement": "EC50", "setting": "[6]", "value": "> 350 µM (not active)"}]}, {"compound": "COC(=O)c1cccc(-n2c(CCC(=O)O)ccc2-c2cccs2)c1", "values": [{"measurement": "EC50", "setting": "[7]", "value": "> 300 µM (not active)"}, {"measurement": "EC50", "setting": "[8]", "value": "> 300 µM (not active)"}]}, {"compound": "CC(C)(C)c1ccc(/C=C2\\Oc3cc(O)ccc3C2=O)cc1", "values": [{"measurement": "EC50", "setting": "[7]", "value": "28.8 µM (active)"}, {"measurement": "EC50", "setting": "[8]", "value": "31.4 µM (active)"}]}, {"compound": "Cc1cc(C(=O)Nc2ccc3c(c2)OCCO3)ccc1[N+](=O)[O-]", "values": [{"measurement": "EC50", "setting": "[4]", "value": "13.7 µM (active)"}]}, {"compound": "FC(F)(F)c1ccc2c(c1)C1C=CCC1C(c1ccncc1)N2", "note": "(stereo unspecified)", "values": [{"measurement": "EC50", "setting": "[7]", "value": "> 300 µM (not active)"}, {"measurement": "EC50", "setting": "[8]", "value": "> 300 µM (not active)"}]}, {"compound": "COc1cc(-c2noc(C)c2C#Cc2ccccn2)cc(OC)c1OC", "values": [{"measurement": "EC50", "setting": "[2]", "value": "0.25 µM (active)"}, {"measurement": "EC50", "setting": "[3]", "value": "9.32 µM (active)"}, {"measurement": "AC50", "setting": "[9]", "value": "394 nM (active)"}, {"measurement": "EC50", "setting": "[4]", "value": "> 120 µM (not active)"}]}, {"compound": "COc1ccc2c(c1)CCc1cc(C(=O)N3CCN(c4ccc(N5CCOCC5)nn4)CC3)sc1-2", "values": [{"measurement": "EC50", "setting": "[2]", "value": "> 120 µM (not active)"}, {"measurement": "EC50", "setting": "[3]", "value": "13.6 µM (active)"}, {"measurement": "EC50", "setting": "[4]", "value": "> 120 µM (not active)"}]}, {"compound": "COc1ccc(-c2cc3nc(C)c(CCC(=O)NC(C)CCc4ccco4)c(C)n3n2)c(OC)c1", "note": "(stereo unspecified)", "values": [{"measurement": "EC50", "setting": "[2]", "value": "> 120 µM (not active)"}, {"measurement": "EC50", "setting": "[3]", "value": "> 120 µM (not active)"}, {"measurement": "EC50", "setting": "[4]", "value": "> 120 µM (not active)"}]}, {"compound": "O=S(=O)(NCc1csc(-c2cccs2)n1)c1cccc(C(F)(F)F)c1", "values": [{"measurement": "IC50", "setting": "[1]", "value": "14.5 µM (active)"}]}, {"compound": "O=C(O)c1cccnc1SCc1ccccc1Cl", "values": [{"measurement": "EC50", "setting": "[5]", "value": "> 350 µM (not active)"}, {"measurement": "EC50", "setting": "[6]", "value": "> 350 µM (not active)"}]}, {"compound": "COc1ccc(CCNc2nncc(O)n2)cc1OC", "values": [{"measurement": "EC50", "setting": "[5]", "value": "> 350 µM (not active)"}, {"measurement": "EC50", "setting": "[6]", "value": "> 350 µM (not active)"}]}, {"compound": "Cc1ccc(C2=NS(=O)(=O)N(C)C(C(=O)NC3CCCC3)=C2)cc1", "values": [{"measurement": "EC50", "setting": "[5]", "value": "> 350 µM (not active)"}, {"measurement": "EC50", "setting": "[6]", "value": "> 350 µM (not active)"}]}, {"compound": "COC(=O)c1c(C)n(Cc2ccccc2)c2ccc(O)cc12", "values": [{"measurement": "EC50", "setting": "[2]", "value": "> 120 µM (not active)"}, {"measurement": "EC50", "setting": "[3]", "value": "> 120 µM (not active)"}, {"measurement": "EC50", "setting": "[4]", "value": "> 120 µM (not active)"}]}, {"compound": "O=C(O)c1cccc(N2CCCC2=O)c1", "values": [{"measurement": "EC50", "setting": "[5]", "value": "> 350 µM (not active)"}, {"measurement": "AC50", "setting": "[10]", "value": "14.1 µM (inconclusive)"}, {"measurement": "EC50", "setting": "[6]", "value": "> 350 µM (not active)"}]}, {"compound": "CCOC(=O)c1c(NC(=O)CN2C(=O)NC3(CCC(C)CC3)C2=O)sc(C)c1-c1ccc(C)cc1", "note": "(stereo unspecified)", "values": [{"measurement": "EC50", "setting": "[5]", "value": "49.6 µM (active)"}, {"measurement": "EC50", "setting": "[6]", "value": "> 350 µM (not active)"}]}, {"compound": "c1coc(-c2nnc3n2C2(CCCC2)Cc2ccccc2-3)c1", "values": [{"measurement": "EC50", "setting": "[2]", "value": "> 120 µM (not active)"}, {"measurement": "EC50", "setting": "[3]", "value": "> 120 µM (not active)"}, {"measurement": "EC50", "setting": "[4]", "value": "> 120 µM (not active)"}]}, {"compound": "O=C1NC(=O)N(CCc2ccc(F)cc2)C(=O)/C1=C/NCCCn1ccnc1", "values": [{"measurement": "EC50", "setting": "[7]", "value": "> 300 µM (not active)"}, {"measurement": "EC50", "setting": "[8]", "value": "> 300 µM (not active)"}]}, {"compound": "N#CC1=C(N)OC2=C(C(=O)CCC2)C1c1ccc(OC(=O)N2CCOCC2)cc1", "note": "(stereo unspecified)", "values": [{"measurement": "EC50", "setting": "[7]", "value": "> 300 µM (not active)"}, {"measurement": "EC50", "setting": "[8]", "value": "> 300 µM (not active)"}]}, {"compound": "O=C(Cn1ncc2c3ccccc3n(Cc3ccccc3)c2c1=O)NCCCN1CCCC1", "values": [{"measurement": "IC50", "setting": "[1]", "value": "13.2 µM (active)"}]}, {"compound": "CCCN(CC(=O)Nc1ccc(F)c(F)c1F)C(=O)Cn1c(=O)cnc2ccccc21", "values": [{"measurement": "IC50", "setting": "[1]", "value": "12.3 µM (active)"}]}, {"compound": "Cc1cccn2c(=O)c3cc(C#N)/c(=N\\C(=O)c4cccs4)n(CCCOC(C)C)c3nc12", "values": [{"measurement": "EC50", "setting": "[7]", "value": "> 300 µM (not active)"}, {"measurement": "EC50", "setting": "[8]", "value": "141 µM (inconclusive)"}]}, {"compound": "C/C(=N\\NC(=O)c1nnn(-c2nonc2N)c1-c1cccs1)c1cccc(O)c1", "values": [{"measurement": "EC50", "setting": "[7]", "value": "> 300 µM (not active)"}, {"measurement": "EC50", "setting": "[8]", "value": "> 300 µM (not active)"}]}]}
